pIC50: −log10 of the molar value. The source made the active and inactive calls. No rule for the calls is given here.
These molecules were tested on 697B cells, BCR-induced NF-kB luciferase reporter luminescence (assay: inhibitors of BCR-induced NF-kB activation, dose response, 697B cells, luciferase luminescence (AID 489023)).

SMILES | IC50 | pIC50
CCOC(=O)c1nn(-c2ccccc2)c(C#N)c1NC(=O)c1nn(CC)cc1Br | > 80 µM (inactive) | –
CCCC(=O)Nc1ccc(Sc2ccc([N+](=O)[O-])cc2)cc1 | 69.3 µM (inactive) | –
Cc1c(NC(=O)/C=C/c2cn(-c3ccccc3)nc2-c2ccccc2)c(=O)n(-c2ccccc2)n1C | > 80 µM (inactive) | –
CNC(=O)CSc1nc2nn(-c3ccccc3)c(=O)c-2c2n1CCCCC2 | 76.9 µM (inactive) | –
CSc1ccc(-c2nc(CSCC(=O)NC3CC3)c(C)o2)cc1 | – | 5.61
CCOC(=O)C(=CNc1cc(C)ccc1C)C(=O)OCC | 49.2 µM (inactive) | –
CCC(C)N1C(=O)/C(=C/c2c(NCCCOC(C)C)nc3c(C)cccn3c2=O)SC1=S (centres undefined) | > 80 µM (inactive) | –
COc1cc(-c2nc3ccc(N4CCN(C)CC4)cc3[nH]2)cc(OC)c1OC | > 80 µM (inactive) | –
Cc1cc(-c2cc(C(=O)NCc3ccccc3)on2)nc(S(C)(=O)=O)n1 | – | 5.41
Cc1ccc(-c2nn3c(C)nnc3c3ccccc23)cc1S(=O)(=O)N1CCN(CCO)CC1 | 26.5 µM (inactive) | –
O=C(O)CCn1c(O)c(C=C2N=c3ccccc3=N2)sc1=S | – | 4.77
CCN(CC)CCOC(=O)c1ccc(NC(=O)COc2cc(=O)n(CC)c3ccccc23)cc1 | > 80 µM (inactive) | –
COc1ccc(-c2n(Cc3ccccc3)c3ccccc3[n+]2Cc2ccccc2)cc1 | > 80 µM (inactive) | –
CCNC(=O)CCc1nc(-c2ccc(C(C)(C)C)cc2)no1 | – | > 6.80
CCN1C(=O)c2cccc3c(S(=O)(=O)N4CCC(C)CC4)ccc1c23 | 49.3 µM (inactive) | –
COC(=O)C1=C(c2ccc(-c3ccccc3)c(F)c2)C[C@@H]2CC[C@H]1N2C(=O)N1CCCC1 | 73.9 µM (inactive) | –
Cc1ccc(-c2c[n+]3c(n2-c2ccccc2)SCC3)cc1 | > 80 µM (inactive) | –
COc1ccc(C(=O)Nc2cccc(NC(=O)c3ccc(OC)c(OC)c3)n2)cc1OC | – | 5.44
Cn1nnnc1Sc1ncnc2scc(Br)c12 | – | 6.17
COc1ccc(-n2nnnc2S(=O)(=O)CC(=O)N2CCCCC2)cc1 | – | 6.10
O=C(Nc1ccccc1C(=O)Nc1nnc(C(F)(F)F)s1)c1ccccc1 | > 80 µM (inactive) | –
COc1ccc(/C=C2\SC(=S)N(CCCC(=O)NNC(=O)c3ccccc3O)C2=O)cc1 | – | 6.17
Cc1ccc(-c2cc(C(=O)NCCCN3CCOCC3)no2)cc1 | – | 4.94
CCn1c(=O)cc(SCC(=O)N2CCOCC2)c2ccccc21 | > 80 µM (inactive) | –
O=C(CCCN1C(=O)/C(=C/c2ccccc2Cl)SC1=S)Nc1ccccn1 | – | 5.40

SMILES | IC50 | pIC50
COc1cc(-c2cc(=O)c3c(O)c(OC)c(OC)c(OC)c3o2)cc(OC)c1OC | > 80 µM (inactive) | –
CC1Cc2ccccc2N1S(=O)(=O)c1cnc(Cl)c(Br)c1 (centres undefined) | 72.9 µM (inactive) | –
Cc1ccc(C(=O)N2CCCC(c3ccc(Cl)cc3)=N2)cc1 | > 80 µM (inactive) | –
COc1cc(-c2nc3n(n2)C(c2ccc(F)cc2)C2=C(CCCC2=O)N3)cc(OC)c1OC (centres undefined) | 65.5 µM (inactive) | –
Cc1c(CCC(=O)N2CCC[C@H]2C(=O)O)c(=O)oc2cc3oc4c(c3cc12)CCCC4 | > 80 µM (inactive) | –
COc1ccc(NS(=O)(=O)c2cc(NC(=O)c3cc(=O)c4ccccc4o3)ccc2OC)cc1 | > 80 µM (inactive) | –
O=C1CCCc2c1[nH]c1ccc(CN3CCCCC3)cc21 | > 80 µM (inactive) | –
Cc1cc(C)cc(N2C(=O)NC(=O)/C(=C\c3cccn3-c3ccccc3)C2=O)c1 | 36.4 µM (inactive) | –
CCc1ccc(-c2nc(CSCC(=O)NC3CC3)c(C)o2)cc1 | – | 6.39
COc1ccc(-c2ccc(F)cc2)cc1[C@H]1[C@H]2C=CC[C@@H](C)[C@@H]2C(=O)N1Cc1ccccc1 | > 80 µM (inactive) | –
O=C(CCCc1nc(-c2ccccc2Cl)no1)NC1CCCC1 | – | 5.90
Cc1cc(OCC(=O)Nc2ccc(CCO)cc2)c2c(C)c(C)c(=O)oc2c1 | > 80 µM (inactive) | –
CCOC(=O)c1sc(NC(=O)c2cc(-c3ccccc3C)nc3ccccc23)c(C#N)c1C | – | 4.71
CC1CCc2c(sc3nc(C(C)(C)C)nc(N4CCN(C(=O)CCl)CC4)c23)C1 (centres undefined) | – | 6.17
Cn1c(=NC(=O)CCl)sc2ccccc21 | – | 6.23
O=[N+]([O-])c1ccc(Sc2cc[n+]([O-])c3ccccc23)c([N+](=O)[O-])c1 | – | 6.23
O=C(CCl)N1CCN(S(=O)(=O)c2ccc3c(c2)CCC3)CC1 | – | 5.24
CCCN1C(=O)/C(=C/c2c(N3CCNC(=O)C3CC(=O)OCC)nc3c(C)cccn3c2=O)SC1=S (centres undefined) | – | 5.23
CC1=CC(C)(C)Nc2ccc(OC(=O)C(Cc3ccccc3)N3C(=O)c4ccccc4C3=O)cc21 (centres undefined) | > 80 µM (inactive) | –
O=c1c(C=NCCCO)c(-c2ccccc2)[nH]n1-c1nc2ccccc2s1 | – | 5.04
COc1ccc(-c2noc(N3CCC(C(=O)Nc4cccc(OC)c4)CC3)n2)cc1 | > 80 µM (inactive) | –
ClCc1nnc(-c2ccccc2)o1 | – | 4.90
O=C(CCl)Nc1ccccc1Sc1ccccc1 | – | 4.80
C(=N\Nc1nc(Nc2ccccc2)nc(Nc2ccccc2)n1)/c1cccnc1 | > 80 µM (inactive) | –

From PubChem BioAssay AID489023 (Sanford-Burnham Center for Chemical Genomics, 2010)
